Assay results published in patent US20230123334A1, “AMINO LIPID COMPOUND, PREPARATION METHOD THEREFOR, AND APPLICATION THEREOF” (SHENZHEN SHENXIN BIOTECHNOLOGY CO., LTD., priority 2020, published 2023).

These compounds were tested on HEK293 cells (assay: Preliminary screening as mRNA vectors, EGFP mRNA transfection of HEK293 cells). Conditions: EGFP mRNA 50 ng per well, 96-well plates; percentage of GFP fluorescent cells relative to total number of cells (Hoechst).
Assay type: cell-based
In short: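 Each well of HEK293 cells received 50 ng of EGFP mRNA. Efficiency was expressed as percent GFP-expressing cells over Hoechst-defined total cell number.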

SMILES | Absolute mRNA transfection efficiency in HEK293 cells [%]
CCCCCCCCCCCCCCCSc1nc(NCCCCCCCC)nc(NCC2CCN(C)CC2)n1 [Compound D10S15N8] | 12.9
CCCCCCCCCCCCCCCSc1nc(NCCCCCCCCC)nc(NCC2CCN(C)CC2)n1 [Compound D10S15N9] | 12.8
CCCCCCCCCCCCCCCSc1nc(NCCCCCCCCCCC)nc(NCC2CCN(C)CC2)n1 [Compound D10S15N11] | 2.7
CCCCCCCCCCCCCCCSc1nc(NCCCCCCCCCCCC)nc(NCC2CCN(C)CC2)n1 [Compound D10S15N12] | 5.1
CCCCCCCCCCCCCCCSc1nc(NCCCCCCCCCCCCC)nc(NCC2CCN(C)CC2)n1 [Compound D10S15N13] | 5.4
CCCCCCCCCCCCCCCNc1nc(NCC2CCN(C)CC2)nc(SCCCCCCCCCCCCCCC)n1 [Compound D10S15N15] | 2.4
CCCCCCCCCCCCCCCCNc1nc(NCC2CCN(C)CC2)nc(SCCCCCCCCCCCCCCC)n1 [Compound D10S15N16] | 6.1
CCCCCCCCCCCCCCCCCCNc1nc(NCC2CCN(C)CC2)nc(SCCCCCCCCCCCCCCC)n1 [Compound D10S15N18] | 4.2
CCCCCCCCCCCCCCCCSc1nc(NCCCCCC)nc(NCC2CCN(C)CC2)n1 [Compound D10S16N6] | 86.9
CCCCCCCCCCCCCCCCSc1nc(NCCCCCCC)nc(NCC2CCN(C)CC2)n1 [Compound D10S16N7] | 29.6
CCCCCCCCCCCCCCCCSc1nc(NCCCCCCCC)nc(NCC2CCN(C)CC2)n1 [Compound D10S16N8] | 70.4
CCCCCCCCCCCCCCCCSc1nc(NCCCCCCCCC)nc(NCC2CCN(C)CC2)n1 [Compound D10S16N9] | 49.2
CCCCCCCCCCCCCCCCSc1nc(NCCCCCCCCCCC)nc(NCC2CCN(C)CC2)n1 [Compound D10S16N11] | 37.8
CCCCCCCCCCCCCCCCSc1nc(NCCCCCCCCCCCC)nc(NCC2CCN(C)CC2)n1 [Compound D10S16N12] | 9.2
CCCCCCCCCCCCCCCCSc1nc(NCCCCCCCCCCCCC)nc(NCC2CCN(C)CC2)n1 [Compound D10S16N13] | 7.1
CCCCCCCCCCCCCCCCSc1nc(NCCCCCCCCCCCCCCC)nc(NCC2CCN(C)CC2)n1 [Compound D10S16N15] | 2.6
CCCCCCCCCCCCCCCCNc1nc(NCC2CCN(C)CC2)nc(SCCCCCCCCCCCCCCCC)n1 [Compound D10S16N16] | 2.8
CCCCCCCCCCCCCCCCCCNc1nc(NCC2CCN(C)CC2)nc(SCCCCCCCCCCCCCCCC)n1 [Compound D10S16N18] | 3.0
CCCCCCCCCCCCCCCCCCSc1nc(NCCCCCC)nc(NCC2CCN(C)CC2)n1 [Compound D10S18N6] | 58.8
CCCCCCCCCCCCCCCCCCSc1nc(NCCCCCCC)nc(NCC2CCN(C)CC2)n1 [Compound D10S18N7] | 45.8

SMILES | Absolute mRNA transfection efficiency in HEK293 cells [%]
CCCCCCCCCCCCCCCCCCSc1nc(NCCCCCCCC)nc(NCC2CCN(C)CC2)n1 [Compound D10S18N8] | 16.8
CCCCCCCCCCCCCCCCCCSc1nc(NCCCCCCCCC)nc(NCC2CCN(C)CC2)n1 [Compound D10S18N9] | 8.9
CCCCCCCCCCCCCCCCCCSc1nc(NCCCCCCCCCCC)nc(NCC2CCN(C)CC2)n1 [Compound D10S18N11] | 4.5
CCCCCCCCCCCCCCCCCCSc1nc(NCCCCCCCCCCCC)nc(NCC2CCN(C)CC2)n1 [Compound D10S18N12] | 2.0
CCCCCCCCCCCCCCCCCCSc1nc(NCCCCCCCCCCCCC)nc(NCC2CCN(C)CC2)n1 [Compound D10S18N13] | 2.9
CCCCCCCCCCCCCCCCCCSc1nc(NCCCCCCCCCCCCCCC)nc(NCC2CCN(C)CC2)n1 [Compound D10S18N15] | 0.2
CCCCCCCCCCCCCCCCCCSc1nc(NCCCCCCCCCCCCCCCC)nc(NCC2CCN(C)CC2)n1 [Compound D10S18N16] | 0.4
CCCCCCCCCCCCCCCCCCNc1nc(NCC2CCN(C)CC2)nc(SCCCCCCCCCCCCCCCCCC)n1 [Compound D10S18N18] | 0.1
CCCCCCCCCCCCN(CCCCCCCCCCCC)c1nc(NCCN(C)C)nc(SCCCCCC)n1 [D1S6^2N12] | 0.7
CCCCCCCCCCCCN(CCCCCCCCCCCC)c1nc(NCCN(C)C)nc(SCCCCCCC)n1 [D1S7^2N12] | 0.7
CCCCCCCCCCCCN(CCCCCCCCCCCC)c1nc(NCCN(C)C)nc(SCCCCCCCC)n1 [D1S8^2N12] | 0.4
CCCCCCCCCCCCN(CCCCCCCCCCCC)c1nc(NCCN(C)C)nc(SCCCCCCCCC)n1 [D1S9^2N12] | 1.0
CCCCCCCCCCCCN(CCCCCCCCCCCC)c1nc(NCCN(C)C)nc(SCCCCCCCCCC)n1 [D1S10^2N12] | 0.4
CCCCCCCCCCCCN(CCCCCCCCCCCC)c1nc(NCCN(C)C)nc(SCCCCCCCCCCC)n1 [D1S11^2N12] | 0.0
CCCCCCCCCCCCSc1nc(NCCN(C)C)nc(N(CCCCCCCCCCCC)CCCCCCCCCCCC)n1 [D1S12^2N12] | 2.6
CCCCCCCCCCCCCCSc1nc(NCCN(C)C)nc(N(CCCCCCCCCCCC)CCCCCCCCCCCC)n1 [D1S14^2N12] | 0.1
CCCCCCCCCCCCCCCSc1nc(NCCN(C)C)nc(N(CCCCCCCCCCCC)CCCCCCCCCCCC)n1 [D1S15^2N12] | 0.3
CCCCCCCCCCCCCCCCSc1nc(NCCN(C)C)nc(N(CCCCCCCCCCCC)CCCCCCCCCCCC)n1 [D1S16^2N12] | 0.0
CCCCCCCCCCCCCCCCCCSc1nc(NCCN(C)C)nc(N(CCCCCCCCCCCC)CCCCCCCCCCCC)n1 [D1S18^2N12] | 0.0
CCCCCCCCCCCCN(CCCCCCCCCCCC)c1nc(NCCN2CCOCC2)nc(SCCCCCC)n1 [D2S6^2N12] | 0.0

SMILES | Absolute mRNA transfection efficiency in HEK293 cells [%]
CCCCCCCCCCCCN(CCCCCCCCCCCC)c1nc(NCCN2CCOCC2)nc(SCCCCCCC)n1 [D2S7^2N12] | 0.4
CCCCCCCCCCCCN(CCCCCCCCCCCC)c1nc(NCCN2CCOCC2)nc(SCCCCCCCC)n1 [D2S8^2N12] | 0.1
CCCCCCCCCCCCN(CCCCCCCCCCCC)c1nc(NCCN2CCOCC2)nc(SCCCCCCCCC)n1 [D2S9^2N12] | 0.1
CCCCCCCCCCCCN(CCCCCCCCCCCC)c1nc(NCCN2CCOCC2)nc(SCCCCCCCCCC)n1 [D2S10^2N12] | 0.0
CCCCCCCCCCCCN(CCCCCCCCCCCC)c1nc(NCCN2CCOCC2)nc(SCCCCCCCCCCC)n1 [D2S11^2N12] | 0.3
CCCCCCCCCCCCSc1nc(NCCN2CCOCC2)nc(N(CCCCCCCCCCCC)CCCCCCCCCCCC)n1 [D2S12^2N12] | 0.1
CCCCCCCCCCCCCCSc1nc(NCCN2CCOCC2)nc(N(CCCCCCCCCCCC)CCCCCCCCCCCC)n1 [D2S14^2N12] | 0.0
CCCCCCCCCCCCCCCSc1nc(NCCN2CCOCC2)nc(N(CCCCCCCCCCCC)CCCCCCCCCCCC)n1 [D2S15^2N12] | 0.4
CCCCCCCCCCCCCCCCSc1nc(NCCN2CCOCC2)nc(N(CCCCCCCCCCCC)CCCCCCCCCCCC)n1 [D2S16^2N12] | 0.7
CCCCCCCCCCCCCCCCCCSc1nc(NCCN2CCOCC2)nc(N(CCCCCCCCCCCC)CCCCCCCCCCCC)n1 [D2S18^2N12] | 0.0
CCCCCCCCCCCCN(CCCCCCCCCCCC)c1nc(NCCN2CCCC2)nc(SCCCCCC)n1 [D3S6^2N12] | 0.4
CCCCCCCCCCCCN(CCCCCCCCCCCC)c1nc(NCCN2CCCC2)nc(SCCCCCCC)n1 [D3S7^2N12] | 0.4
CCCCCCCCCCCCN(CCCCCCCCCCCC)c1nc(NCCN2CCCC2)nc(SCCCCCCCC)n1 [D3S8^2N12] | 0.9
CCCCCCCCCCCCN(CCCCCCCCCCCC)c1nc(NCCN2CCCC2)nc(SCCCCCCCCC)n1 [D3S9^2N12] | 1.3
CCCCCCCCCCCCN(CCCCCCCCCCCC)c1nc(NCCN2CCCC2)nc(SCCCCCCCCCC)n1 [D3S10^2N12] | 0.1
CCCCCCCCCCCCN(CCCCCCCCCCCC)c1nc(NCCN2CCCC2)nc(SCCCCCCCCCCC)n1 [D3S11^2N12] | 0.0
CCCCCCCCCCCCSc1nc(NCCN2CCCC2)nc(N(CCCCCCCCCCCC)CCCCCCCCCCCC)n1 [D3S12^2N12] | 2.2
CCCCCCCCCCCCCCSc1nc(NCCN2CCCC2)nc(N(CCCCCCCCCCCC)CCCCCCCCCCCC)n1 [D3S14^2N12] | 0.2
